Bounds are passed on as bounds.

For series [1], the species on record is Cavia porcellus. The series can be described thus: Compound was tested for LTD4 induced guinea pig trachea contraction. The series is classed as functional.
In series [2] the test system is Homo sapiens. The series can be described thus: Compound was shown 8 fold shift in LTD4 dose response curve 2 hours after 250 mg oral dose. The series is classed as functional.
For series [3], the species on record is Homo sapiens. In words: Compound was tested for in vitro inhibition against human whole blood. The series is classed as functional.
The species entered for series [4] is Homo sapiens. The series can be described thus: Compound was tested for in vitro inhibition against human PMNL. The series is classed as functional.
A short description of series [5]: phase 1 oral half life at a dose 200 mg. The conditions noted are these: human, in vivo. The series is classed as ADME, organism-based.
Series [6] concerns Mus musculus. In words: Compound was tested for in vivo inhibition against mouse AA ear edema. The series is classed as functional.
Series [7] is described as follows: Compound was tested for in vivo inhibition against gp antigen bronchospasm. It counts as functional. The conditions noted are these: Cavia porcellus, Bronchiole.
Series [8] concerns Cavia porcellus. In words: Compound was tested for in vivo inhibition against gp AA bronchospasm. It counts as functional. Particulars: Bronchiole.
Series [9] concerns Rattus norvegicus. In words: Compound was tested for in vivo inhibition against rat peritoneal anaphylaxis. It counts as functional.
For series [10], the system named is RBL-1. In words: Compound was tested for in vitro inhibition against broken RBL-1. The series is classed as functional. Particulars: Rattus norvegicus.
For series [11], the species on record is Cavia porcellus. In words: Compound was evaluated for LTD4 induced against guinea pig trachea contraction. It counts as functional.
Series [12] addresses T1, Cysteinyl leukotriene receptor (Homo sapiens, UniProt Q9Y271+Q9NS75).
T1 sequence (Q9Y271 whole entry): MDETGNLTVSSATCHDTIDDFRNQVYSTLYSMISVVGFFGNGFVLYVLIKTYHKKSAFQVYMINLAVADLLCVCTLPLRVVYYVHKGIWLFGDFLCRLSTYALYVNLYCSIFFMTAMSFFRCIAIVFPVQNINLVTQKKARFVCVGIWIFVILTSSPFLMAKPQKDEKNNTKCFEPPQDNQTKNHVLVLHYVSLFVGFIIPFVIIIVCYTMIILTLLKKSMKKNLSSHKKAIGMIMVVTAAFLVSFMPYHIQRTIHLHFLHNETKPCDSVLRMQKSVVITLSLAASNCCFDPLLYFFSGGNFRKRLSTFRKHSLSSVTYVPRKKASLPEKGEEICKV
T1 sequence (Q9NS75 whole entry): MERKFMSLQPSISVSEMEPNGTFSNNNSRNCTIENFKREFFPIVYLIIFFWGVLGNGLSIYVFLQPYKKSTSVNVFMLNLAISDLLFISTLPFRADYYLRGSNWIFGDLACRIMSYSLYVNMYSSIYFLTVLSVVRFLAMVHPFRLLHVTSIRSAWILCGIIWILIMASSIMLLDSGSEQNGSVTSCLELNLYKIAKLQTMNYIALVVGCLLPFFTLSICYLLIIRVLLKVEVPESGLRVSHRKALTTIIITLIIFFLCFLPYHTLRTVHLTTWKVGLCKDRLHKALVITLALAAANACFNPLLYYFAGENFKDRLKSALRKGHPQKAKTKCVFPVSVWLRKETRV
The series can be described thus: Binding affinity against Cysteinyl leukotriene D4 receptor. It counts as protein assay.

The test system of series [13] is Homo sapiens. In words: Compound was evaluated for LTD4 induced bronchoconstriction (shift in dose response curve 2 hr after 40 mg oral administration). The series is classed as functional.
Series [14] concerns Homo sapiens. The series can be described thus: Compound was evaluated for LTD4 induced bronchoconstriction (shift in dose response curve 2 hr after 40 mg oral administration) shift persisted for 24 hrs. The series is classed as functional.
Series [15] is filed under the species Cavia porcellus. The series can be described thus: Compound was evaluated for LTD4 induced guinea pig trachea contraction. The conditions noted are these: read-out: pA2 (converted).
The test system of series [16] is Homo sapiens. In words: Compound was tested for fold shift in LTD4 dose response curve following 1 g oral dose. It counts as functional.
For series [17], the species on record is Cavia porcellus. The series can be described thus: Compound was tested for LTD4 induced guinea pig trachea contraction. It counts as functional. The conditions noted are these: read-out: pA2 (converted).
Series [18] deals with Homo sapiens. In words: Fold shift in LTD4 dose response curve following 280 mg intravenous dose in asthmatic patients. The series is classed as functional.
A short description of series [19]: Phase 1 oral half life was determined. The conditions noted are these: human, in vivo. It counts as ADME, organism-based.
In series [20] the test system is Rattus norvegicus. In words: Compound was tested for in vivo inhibition on rat peritoneal anaphylaxis. The series is classed as functional.
For series [21], the species on record is Homo sapiens. In words: Compound was tested for in vitro inhibition on human PMNL. The series is classed as functional.
Series [22] concerns RBL-1. In words: Compound was tested for in vitro inhibition on broken RBL-1. It counts as functional. Particulars: Rattus norvegicus.
Series [23] concerns Cavia porcellus. In words: Compound was tested for in vivo inhibition on gp AA bronchospasm. The series is classed as functional. Particulars: Bronchiole.
Series [24] is filed under the species Homo sapiens. The series can be described thus: Compound was tested for in vitro inhibition on human whole blood. It counts as functional.
For series [25], the system named is Mus musculus. The series can be described thus: Compound was tested for in vivo inhibition on mouse AA ear edema. It counts as functional.
Series [26] has as its system Cavia porcellus. In words: Compound was tested for in vivo inhibition on gp antigen bronchospasm. Particulars: Bronchiole. It counts as functional.
Series [27] concerns Rattus norvegicus. The series can be described thus: Compound was tested for in vivo inhibition against rat antigen bronchospasm. It counts as functional.
Series [28] can be described thus: Inhibitory activity against LT biosynthesis; […]. The series is classed as functional.
Another series relates to Monkey. The series can be described thus: Compound was tested for in vivo inhibition against squirrel monkey antigen bronchospasm at 1 mg/kg. The series is classed as functional. Particulars: Bronchiole, in Primates.
Series [29] concerns Rattus norvegicus. The series can be described thus: Compound was tested for in vivo inhibition against rat ionophore LTB4 formation. The series is classed as functional.
The species entered for series [30] is Homo sapiens. In words: Compound was tested in vitro for inhibitory activity in LTB4 induced neutrophil degranulation. The series is classed as functional.
Series [31] deals with Cavia porcellus. In words: Compound was tested in vivo for LTB4 induced neutrophil chemotaxis in guinea pig(orally) at duration 5.5 h. The series is classed as functional. The conditions noted are these: po.
Series [32] has as its system Mus musculus. In words: Compound was tested in vivo inhibitory activity against PMA induced ear edema. It counts as functional.
Series [33] deals with Cavia porcellus. The series can be described thus: Compound was tested in vivo inhibitory activity against LTB4 induced bronchoconstriction in guinea pig (intravenous). The series is classed as functional.
For series [34], the system named is Cavia porcellus. The series can be described thus: Compound was tested in vivo inhibitory activity against LTB4 induced bronchoconstriction in guinea pig(po). The series is classed as functional.
Series [35] concerns Cavia porcellus. In words: Compound was tested in vivo inhibitory activity against LTB4 induced neutropenia in guinea pig.(orally). It counts as functional. The conditions noted are these: po.
For series [36], the species on record is Homo sapiens. In words: Compound was tested in vitro inhibitory activity against human neutrophil degranulation. It counts as functional.
The test system of series [37] is Cavia porcellus. In words: Compound was tested in vivo inhibitory activity against LTB4 induced neutrophil influx in guinea pig(orally). The series is classed as functional. The conditions noted are these: po.

In the case of `O=C(O)CC[C@@H](/C=C\Cc1ccc(OCCCCOc2ccccc2)cc1)Sc1ccc(C(=O)O)cc1`, in the series filed under Cavia porcellus [1], the pKB (as a rule, the negative decadic logarithm of the KB, by convention in mol/L) was 8.4. Besides, the Activity with Homo sapiens [2] came to 8.
On to `C[C@H](C#Cc1ccc(Oc2ccc(F)cc2)o1)N(O)C(N)=O`, for which the IC50 (commonly the point on the concentration scale where inhibition reaches its midpoint) worked out at 80 nM in the series filed under Homo sapiens [3], 25 nM in the series listed under Homo sapiens [4] and 54 nM in the series with RBL-1 [10]. Besides, the half-life – broadly, the time in which the quantity being followed falls by half – in series [5] was 7 h. In addition, the ED50 with Mus musculus [6] worked out at 3 mg/kg; in series [7], 2.5 mg/kg; in the series with Cavia porcellus [8], 2 mg/kg; in the series on Rattus norvegicus [9], 1.5 mg/kg.
Regarding `CCCCCC(O)c1cccc(OCc2ccc3ccccc3n2)c1` (configuration not stated) [REV-5901], in the series filed under Cavia porcellus [11], the pKB was 5.5. The inhibition constant (Ki) (as a rule, a measure of affinity in units of concentration, obtained from inhibition or displacement) in series [12] was 700 nM.
On to `COc1cc(C(=O)NS(=O)(=O)c2ccccc2C)ccc1Cc1cn(C)c2ccc(NC(=O)OC3CCCC3)cc12` [ZAFIRLUKAST], for which the figures for the Activity in the series with Homo sapiens [13] and in the series with Homo sapiens [14] were 117 and 5, respectively. For the same molecule, the Kb in the series listed under Cavia porcellus [15] is 0.316 nM.
In series [12], `CCCc1c(OCCCSc2ccc([C@@H](O)[C@H](C)CC(=O)O)cc2)ccc(C(C)=O)c1O` [L-649923] registered a Ki of 400 nM. In the series with Homo sapiens [16], the Activity is 3.8.
With `CC(C)(O)c1ccccc1CC[C@@H](SCC1(CC(=O)O)CC1)c1cccc(/C=C/c2ccc3ccc(Cl)cc3n2)c1` [MONTELUKAST], the Kb in the series filed under Cavia porcellus [17] was 0.501 nM.
Consider `CCCc1c(OCCCC/C=C\C=C\[C@H](Sc2ccc3c(=O)cc(C(=O)[O-])oc3c2)[C@H](O)c2cccc(C(F)(F)F)c2)ccc(C(C)=O)c1O.[Na+]`, for which the Ki in series [12] worked out at 26 nM.
Regarding `CN(C)C(=O)CCSC(SCCC(=O)[O-])c1cccc(/C=C/c2ccc3ccc(Cl)cc3n2)c1.[Na+]` (configuration not stated), in the series on Homo sapiens [18], the Activity is over 83. The molecule also had a Ki in series [12] of 0.2 nM.
Consider `CCCCCCCCC/C=C\C=C\[C@@H](SCCC(=O)O)[C@@H](O)c1cccc(-c2nnn[nH]2)c1`, for which the Kb in the series listed under Cavia porcellus [17] is 5.01 nM.
Turning to `CC(c1cc2ccccc2s1)N(O)C(N)=O` (configuration not stated) [ZILEUTON], in series [19], the half-life is 3 h. For the same molecule, the ED50 with Rattus norvegicus [20] is 3 mg/kg; in the series with Cavia porcellus [23], 18 mg/kg; with Mus musculus [25] it was 31 mg/kg; in the series with Cavia porcellus [26], 12 mg/kg. Further, the half-maximal inhibitory concentration (IC50) in the series listed under Homo sapiens [21] was found to be 600 nM; in the series on RBL-1 [22] it was 100 nM; in the series filed under Homo sapiens [24], 700 nM.
As to `CC(C)c1ccc2c(c1)c(SC(C)(C)C)c(CC(C)(C)C(=O)O)n2Cc1ccc(Cl)cc1`, the ED50 was found to be 0.036 mg/kg in the series on Rattus norvegicus [27] and 0.2 mg/kg in the series with Rattus norvegicus [29]. Besides, the IC50 in [28] came to 5 nM. Also, the inhibition in vivo – broadly, the drop in the measured response relative to a control, in per cent – at 1 mg/kg in the series on Monkey is 85%.
In turn, `CCCc1c(OCCCOc2ccc(C(C)=O)c(OC)c2CCC)ccc2c1OC(C(=O)O)CC2` (configuration not stated) [SC-41390] came in with an IC50 in the series listed under Homo sapiens [30] of 1080 nM. In addition, the ED50 with Cavia porcellus [31] was 1.7 mg/kg; in the series on Mus musculus [32], 4200 nM.
`CCc1cc(C(C)=O)c(O)cc1OCCCCCC(C)(C)c1nn[nH]n1` [LY-255283]: the ED50 with Cavia porcellus [33] turned out to be 2.8 mg/kg; in the series with Cavia porcellus [34], 11 mg/kg.
In the case of `COc1ccc(/C=C/CCCCOc2cccc(OCCCCC(=O)O)c2CCC(=O)O)cc1`, the ED50 with Cavia porcellus [35] was found to be 25.6 mg/kg; with Cavia porcellus [37] it was 5.3 mg/kg. The molecule also displayed an IC50 in the series filed under Homo sapiens [36] of 1600 nM.

Values taken from ChEMBL document CHEMBL1129361, “Modulators of leukotriene biosynthesis and receptor activation” (J Med Chem, 1996).
